# Reference: ChEMBL document CHEMBL5506027, “Discovery of a Novel and Potent Cyclin-Dependent Kinase 8/19 (CDK8/19) Inhibitor for the Treatment of Cancer” (J Med Chem, 2024)
# pIC50: −log10 of the molar value.
# How the values were obtained:
# CDK2/Cyclin A2 = CDK2/Cyclin A2 (Homo sapiens, UniProt P24941); assay: Inhibition of CDK2/cyclinA2 (unknown origin) by ADP-Glo chemiluminescence assay; assay type: protein-complex assay
# [1] = target: T1, Cyclin-dependent kinase 19 (Homo sapiens, UniProt Q9BWU1); assay: Inhibition of CDK19 (unknown origin) by ADP-Glo assay
# T1 sequence (Q9BWU1 whole entry): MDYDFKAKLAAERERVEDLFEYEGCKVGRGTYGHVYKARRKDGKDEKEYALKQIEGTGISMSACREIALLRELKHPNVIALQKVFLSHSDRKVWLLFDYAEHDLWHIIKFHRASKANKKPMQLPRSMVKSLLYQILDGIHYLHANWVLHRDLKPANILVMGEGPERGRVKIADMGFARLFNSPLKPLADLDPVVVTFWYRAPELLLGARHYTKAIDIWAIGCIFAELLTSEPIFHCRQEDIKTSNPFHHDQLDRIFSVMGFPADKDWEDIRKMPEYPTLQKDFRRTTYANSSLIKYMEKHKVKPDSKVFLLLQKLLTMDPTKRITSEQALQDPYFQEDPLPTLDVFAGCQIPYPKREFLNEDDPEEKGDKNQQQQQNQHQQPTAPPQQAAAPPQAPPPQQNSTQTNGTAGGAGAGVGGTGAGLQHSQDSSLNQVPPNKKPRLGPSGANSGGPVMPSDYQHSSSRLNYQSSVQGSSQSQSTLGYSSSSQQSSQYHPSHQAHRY
# [2] = target: T1, Cyclin-dependent kinase 19; assay: Inhibition of CDK19 (unknown origin) by HTRF assay
# [3] = Volume of distribution at steady state in rat at 1 mg/kg, iv measured upto 24 hrs by LC-MS/MS anlaysis; assay type: ADME, organism-based; details: in vivo, read-out: Vdss
# [4] = Half-life in mouse at 1 mg/kg, iv measured upto 24 hrs by LC-MS/MS anlaysis; assay type: ADME, organism-based; details: in vivo
# [5] = target: Serine/threonine-protein kinase haspin (Homo sapiens, UniProt Q8TF76); assay: Inhibition of HASPIN (unknown origin) by ADP-Glo assay
# CDK8/Cyclin C = CDK8/Cyclin C (Homo sapiens, UniProt P49336); assay: Inhibition of CDK8/CyclinC (unknown origin) by ADP-Glo chemiluminescence assay; assay type: protein-complex assay
# CDK8/Cyclin C, sequence (P49336 whole entry): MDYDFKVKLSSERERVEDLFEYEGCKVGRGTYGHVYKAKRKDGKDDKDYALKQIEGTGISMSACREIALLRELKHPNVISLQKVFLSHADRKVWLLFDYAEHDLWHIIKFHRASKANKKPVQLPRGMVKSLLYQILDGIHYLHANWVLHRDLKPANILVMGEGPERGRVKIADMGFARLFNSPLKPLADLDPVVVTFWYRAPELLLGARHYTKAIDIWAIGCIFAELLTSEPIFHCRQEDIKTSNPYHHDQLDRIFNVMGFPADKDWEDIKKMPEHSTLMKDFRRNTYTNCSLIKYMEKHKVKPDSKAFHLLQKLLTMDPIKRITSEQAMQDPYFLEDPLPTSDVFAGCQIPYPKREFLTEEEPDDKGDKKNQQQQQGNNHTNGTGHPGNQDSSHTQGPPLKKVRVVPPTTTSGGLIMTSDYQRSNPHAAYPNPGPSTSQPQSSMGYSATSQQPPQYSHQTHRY
# CDK8/Cyclin C, sequence (P24863 whole entry, further chain): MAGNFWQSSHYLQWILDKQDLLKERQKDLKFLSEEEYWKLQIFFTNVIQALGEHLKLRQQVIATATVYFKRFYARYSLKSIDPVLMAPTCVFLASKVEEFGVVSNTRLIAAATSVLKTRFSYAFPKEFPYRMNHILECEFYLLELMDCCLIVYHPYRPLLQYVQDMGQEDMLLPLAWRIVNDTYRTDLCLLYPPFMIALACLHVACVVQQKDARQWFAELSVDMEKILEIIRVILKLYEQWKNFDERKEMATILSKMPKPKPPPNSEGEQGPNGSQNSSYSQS
# [6] = target: Serine/threonine-protein kinase pim-2 (Homo sapiens, UniProt Q9P1W9); assay: Inhibition of PIM2 (unknown origin) by ADP-Glo assay
# Serine/threonine-protein kinase pim-2, sequence (Q9P1W9 whole entry): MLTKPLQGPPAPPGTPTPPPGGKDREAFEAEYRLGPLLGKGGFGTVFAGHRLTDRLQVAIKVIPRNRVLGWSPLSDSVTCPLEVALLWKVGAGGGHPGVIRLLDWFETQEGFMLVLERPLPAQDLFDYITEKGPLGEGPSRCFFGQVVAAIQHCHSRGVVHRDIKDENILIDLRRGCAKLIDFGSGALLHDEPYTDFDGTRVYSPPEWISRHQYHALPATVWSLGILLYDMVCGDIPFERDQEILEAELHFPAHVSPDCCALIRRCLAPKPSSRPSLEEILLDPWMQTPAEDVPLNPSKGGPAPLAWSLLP
# CDK7/Cyclin H/MNAT1 = CDK7/Cyclin H/MNAT1 (Homo sapiens, UniProt P50613); assay: Inhibition of CDK7/cyclinH/MAT1 (unknown origin) by ADP-Glo chemiluminescence assay; assay type: protein-complex assay
# [7] = Volume of distribution at steady state in dog at 1 mg/kg, iv measured upto 24 hrs by LC-MS/MS anlaysis; assay type: ADME, organism-based, Canis lupus familiaris; details: in vivo, read-out: Vdss
# [8] = Clearance in rat at 1 mg/kg, iv measured upto 24 hrs by LC-MS/MS anlaysis; assay type: ADME, organism-based; details: in vivo
# Cytochrome P450 1A2 [9] = target: T2, Cytochrome P450 1A2 (Homo sapiens, UniProt P05177); assay: Inhibition of CYP1A2 (unknown origin) preincubated for 30 mins in presence of NADPH; assay type: ADME
# T2 sequence (P05177 whole entry): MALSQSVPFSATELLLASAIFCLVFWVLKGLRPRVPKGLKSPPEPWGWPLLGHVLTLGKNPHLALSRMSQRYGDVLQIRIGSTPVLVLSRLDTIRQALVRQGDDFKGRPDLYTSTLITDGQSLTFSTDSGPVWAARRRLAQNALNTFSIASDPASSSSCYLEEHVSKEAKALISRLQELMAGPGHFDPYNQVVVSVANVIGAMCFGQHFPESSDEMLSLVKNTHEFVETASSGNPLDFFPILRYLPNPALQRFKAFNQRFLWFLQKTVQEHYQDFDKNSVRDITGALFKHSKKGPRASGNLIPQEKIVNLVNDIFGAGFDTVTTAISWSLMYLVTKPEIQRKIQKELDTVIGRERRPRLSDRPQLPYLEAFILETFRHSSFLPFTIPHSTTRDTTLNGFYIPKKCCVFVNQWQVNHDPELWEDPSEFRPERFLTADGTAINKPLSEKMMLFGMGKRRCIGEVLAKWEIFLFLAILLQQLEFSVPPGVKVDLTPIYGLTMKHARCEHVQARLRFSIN
# [10] = target: T3, Cyclin-dependent kinase 5/CDK5 activator 1 (Homo sapiens, UniProt Q00535); assay: Inhibition of CDK5/p35NCK (unknown origin) by ADP-Glo chemiluminescence assay; assay type: protein-complex assay
# T3 sequence (Q00535 whole entry, canonical isoform): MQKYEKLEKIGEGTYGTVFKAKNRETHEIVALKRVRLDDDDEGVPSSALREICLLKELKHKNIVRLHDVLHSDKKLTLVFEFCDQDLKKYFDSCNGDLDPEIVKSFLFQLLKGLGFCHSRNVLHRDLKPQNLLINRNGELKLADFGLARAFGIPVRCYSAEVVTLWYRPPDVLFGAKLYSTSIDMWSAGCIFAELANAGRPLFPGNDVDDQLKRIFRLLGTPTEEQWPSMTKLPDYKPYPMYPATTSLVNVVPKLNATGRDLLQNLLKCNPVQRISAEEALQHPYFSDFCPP
# T3 sequence (Q15078 whole entry, further chain, canonical isoform): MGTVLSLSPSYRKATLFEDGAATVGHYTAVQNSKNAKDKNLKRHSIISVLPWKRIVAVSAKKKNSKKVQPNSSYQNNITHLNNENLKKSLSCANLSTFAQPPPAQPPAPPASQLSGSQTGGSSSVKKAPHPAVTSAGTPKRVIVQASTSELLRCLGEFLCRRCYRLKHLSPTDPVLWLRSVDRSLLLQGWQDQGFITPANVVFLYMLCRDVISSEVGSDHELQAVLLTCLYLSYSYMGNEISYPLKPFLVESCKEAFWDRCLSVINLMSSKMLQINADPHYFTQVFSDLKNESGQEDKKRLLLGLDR
# [11] = target: Casein kinase I isoform alpha (Homo sapiens, UniProt P48729); assay: Inhibition of CSNK1A1 (unknown origin) by ADP-Glo assay
# [12] = target: Cyclin-dependent kinase 2/cyclin E1 (Homo sapiens, UniProt P24941); assay: Inhibition of CDK2/cyclinE1 (unknown origin) by ADP-Glo chemiluminescence assay; assay type: protein-complex assay
# [13] = target: Cyclin-dependent kinase 8 (Homo sapiens, UniProt P49336); assay: Inhibition of CDK8 (unknown origin) by HTRF assay
# Cyclin-dependent kinase 8, sequence (P49336 whole entry): as the sequence (P49336 whole entry) above
# [14] = target: T3, Cyclin-dependent kinase 5/CDK5 activator 1; assay: Inhibition of CDK5/p25NCK (unknown origin) by ADP-Glo chemiluminescence assay; assay type: protein-complex assay
# [15] = target: Dual specificity tyrosine-phosphorylation-regulated kinase 1A (Homo sapiens, UniProt Q13627); assay: Inhibition of DYRK1A (unknown origin) by ADP-Glo assay
# [16] = Clearance in mouse at 1 mg/kg, iv measured upto 24 hrs by LC-MS/MS anlaysis; assay type: ADME, organism-based; details: in vivo
# [17] = target: Dual specificity protein kinase CLK4 (Homo sapiens, UniProt Q9HAZ1); assay: Inhibition of CLK4 (unknown origin) by ADP-Glo assay
# [18] = Inhibition of CDK1/cyclinA2 (unknown origin) by ADP-Glo chemiluminescence assay; design: species or system Homo sapiens
# [19] = target: Voltage-gated inwardly rectifying potassium channel KCNH2 (Homo sapiens, UniProt Q12809); assay: Inhibition of human ERG; assay type: toxicity
# Voltage-gated inwardly rectifying potassium channel KCNH2, sequence (Q12809 whole entry): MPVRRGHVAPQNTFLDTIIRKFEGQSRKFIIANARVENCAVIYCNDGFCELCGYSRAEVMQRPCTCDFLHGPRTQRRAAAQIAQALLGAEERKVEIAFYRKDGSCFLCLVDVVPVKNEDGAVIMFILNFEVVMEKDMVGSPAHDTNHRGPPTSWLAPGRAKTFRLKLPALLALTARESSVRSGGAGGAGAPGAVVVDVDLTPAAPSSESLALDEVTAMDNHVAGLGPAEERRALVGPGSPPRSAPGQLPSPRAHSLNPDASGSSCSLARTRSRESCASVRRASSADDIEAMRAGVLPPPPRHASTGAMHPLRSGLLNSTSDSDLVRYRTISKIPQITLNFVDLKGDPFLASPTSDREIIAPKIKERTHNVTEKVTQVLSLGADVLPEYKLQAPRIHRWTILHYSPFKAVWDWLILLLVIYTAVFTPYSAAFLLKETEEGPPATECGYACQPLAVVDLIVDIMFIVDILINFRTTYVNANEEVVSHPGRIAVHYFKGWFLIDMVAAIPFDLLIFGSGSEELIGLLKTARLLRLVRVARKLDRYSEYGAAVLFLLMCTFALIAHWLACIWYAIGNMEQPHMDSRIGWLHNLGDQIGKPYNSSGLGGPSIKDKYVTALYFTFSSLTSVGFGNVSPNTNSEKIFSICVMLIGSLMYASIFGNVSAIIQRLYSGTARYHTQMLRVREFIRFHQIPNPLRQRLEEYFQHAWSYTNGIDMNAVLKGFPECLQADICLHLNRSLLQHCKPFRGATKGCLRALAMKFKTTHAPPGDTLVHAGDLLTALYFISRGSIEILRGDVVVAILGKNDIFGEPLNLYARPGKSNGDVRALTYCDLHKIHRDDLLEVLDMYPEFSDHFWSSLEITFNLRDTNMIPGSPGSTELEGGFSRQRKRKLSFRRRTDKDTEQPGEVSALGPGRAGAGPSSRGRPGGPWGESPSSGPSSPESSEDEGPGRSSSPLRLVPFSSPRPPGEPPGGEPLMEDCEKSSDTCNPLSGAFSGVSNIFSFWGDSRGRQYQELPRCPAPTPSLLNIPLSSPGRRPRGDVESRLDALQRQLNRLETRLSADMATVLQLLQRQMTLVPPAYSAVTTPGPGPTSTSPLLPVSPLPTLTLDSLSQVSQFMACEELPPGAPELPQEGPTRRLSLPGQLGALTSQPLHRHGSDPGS
# [20] = target: Dual specificity protein kinase CLK1 (Homo sapiens, UniProt P49759); assay: Inhibition of CLK1 (unknown origin) by ADP-Glo assay
# Cytochrome P450 1A2 [21] = target: T2, Cytochrome P450 1A2; assay: Inhibition of CYP1A2 (unknown origin) in absence of NADPH; assay type: ADME
# [22] = target: Dual specificity protein kinase CLK2 (Homo sapiens, UniProt P49760); assay: Inhibition of CLK2 (unknown origin) by ADP-Glo assay
# [23] = Half-life in dog at 1 mg/kg, iv measured upto 24 hrs by LC-MS/MS anlaysis; assay type: ADME, organism-based, Canis lupus familiaris; details: in vivo
# [24] = target: Rho-associated protein kinase 1 (Homo sapiens, UniProt Q13464); assay: Inhibition of ROCK1 (unknown origin) by ADP-Glo assay
# MV4-11 = assay: Antiproliferative activity against human MV4-11 cells incubated for 5 days by CellTiter-Glo luminescent cell viability assay; assay type: functional, cell-based; details: MV4-11, 120 h
# [25] = Volume of distribution at steady state in mouse at 1 mg/kg, iv measured upto 24 hrs by LC-MS/MS anlaysis; assay type: ADME, organism-based; details: in vivo, read-out: Vdss
# [26] = target: Mitogen-activated protein kinase 15 (Homo sapiens, UniProt Q8TD08); assay: Inhibition of ERK8 (unknown origin) by ADP-Glo assay
# Mitogen-activated protein kinase 15, sequence (Q8TD08 whole entry): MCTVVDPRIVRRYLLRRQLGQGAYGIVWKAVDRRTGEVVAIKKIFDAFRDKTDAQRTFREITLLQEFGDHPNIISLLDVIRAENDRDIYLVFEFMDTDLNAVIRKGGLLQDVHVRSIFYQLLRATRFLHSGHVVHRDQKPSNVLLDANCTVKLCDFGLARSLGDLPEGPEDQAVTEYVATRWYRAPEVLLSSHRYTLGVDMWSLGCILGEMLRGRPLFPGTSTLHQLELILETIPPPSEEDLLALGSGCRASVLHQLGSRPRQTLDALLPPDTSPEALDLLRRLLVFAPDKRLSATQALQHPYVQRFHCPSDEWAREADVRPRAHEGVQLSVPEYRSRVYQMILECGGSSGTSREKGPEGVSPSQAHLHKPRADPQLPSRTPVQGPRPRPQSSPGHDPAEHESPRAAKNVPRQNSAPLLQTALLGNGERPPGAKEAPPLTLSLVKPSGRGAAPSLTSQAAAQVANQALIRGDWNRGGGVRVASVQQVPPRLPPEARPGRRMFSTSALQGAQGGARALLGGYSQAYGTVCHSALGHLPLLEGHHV
# [27] = Clearance in dog at 1 mg/kg, iv measured upto 24 hrs by LC-MS/MS anlaysis; assay type: ADME, organism-based, Canis lupus familiaris; details: in vivo
# [28] = Half-life in rat at 1 mg/kg, iv measured upto 24 hrs by LC-MS/MS anlaysis; assay type: ADME, organism-based; details: in vivo
# [29] = target: Casein kinase II subunit alpha' (Homo sapiens, UniProt P19784); assay: Inhibition of CSNK2A2 (unknown origin) by ADP-Glo assay
# [30] = target: Homeodomain-interacting protein kinase 3 (Homo sapiens, UniProt Q9H422); assay: Inhibition of HIPK3 (unknown origin) by ADP-Glo assay
# [31] = target: Serine/threonine-protein kinase TAO1 (Homo sapiens, UniProt Q7L7X3); assay: Inhibition of TAOK1 (unknown origin) by ADP-Glo assay
# Serine/threonine-protein kinase TAO1, sequence (Q7L7X3 whole entry): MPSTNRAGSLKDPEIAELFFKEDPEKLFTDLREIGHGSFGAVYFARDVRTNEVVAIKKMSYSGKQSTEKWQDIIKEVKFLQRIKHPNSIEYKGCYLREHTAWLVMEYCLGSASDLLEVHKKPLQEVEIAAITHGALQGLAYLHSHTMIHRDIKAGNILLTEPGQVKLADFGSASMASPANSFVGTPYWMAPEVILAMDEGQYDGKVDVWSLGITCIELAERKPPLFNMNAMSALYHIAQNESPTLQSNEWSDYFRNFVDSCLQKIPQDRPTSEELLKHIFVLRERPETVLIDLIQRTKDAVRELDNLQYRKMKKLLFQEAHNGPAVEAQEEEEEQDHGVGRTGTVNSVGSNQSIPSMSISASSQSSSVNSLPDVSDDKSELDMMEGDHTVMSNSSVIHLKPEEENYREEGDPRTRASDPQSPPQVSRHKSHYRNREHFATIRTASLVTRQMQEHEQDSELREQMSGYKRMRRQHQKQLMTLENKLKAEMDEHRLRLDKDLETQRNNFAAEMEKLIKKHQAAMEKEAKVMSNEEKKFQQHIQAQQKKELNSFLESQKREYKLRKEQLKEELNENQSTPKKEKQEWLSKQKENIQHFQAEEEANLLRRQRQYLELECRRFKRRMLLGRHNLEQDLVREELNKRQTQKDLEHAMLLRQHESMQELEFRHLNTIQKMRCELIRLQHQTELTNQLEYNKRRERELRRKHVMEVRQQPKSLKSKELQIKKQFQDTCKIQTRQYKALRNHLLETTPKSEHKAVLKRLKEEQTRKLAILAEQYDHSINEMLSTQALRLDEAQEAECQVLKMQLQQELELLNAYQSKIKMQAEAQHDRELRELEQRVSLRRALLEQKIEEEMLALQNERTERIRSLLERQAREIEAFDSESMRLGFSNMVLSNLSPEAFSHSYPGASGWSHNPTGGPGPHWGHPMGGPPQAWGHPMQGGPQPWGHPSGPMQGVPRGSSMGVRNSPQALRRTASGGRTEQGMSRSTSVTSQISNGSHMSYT
# [32] = target: CDK7/Cyclin H/MNAT1 (Homo sapiens) (UniProt P51946+P50613+P51948); assay: Inhibition of CDK7/cyclinH/MAT1 (unknown origin) at 1 uM by luminescence based assay relative to control; assay type: protein-complex assay
# [33] = target: CDK9/cyclin T1 (Homo sapiens) (UniProt O60563+P50750); assay: Inhibition of CDK9/cyclinT1 (unknown origin) at 1 uM by luminescence based assay relative to control; assay type: protein-complex assay
Structure (SMILES),pIC50 (CDK2/Cyclin A2),pIC50 [1],pIC50 [2],Vd [3] [L/kg],half-life [4] [h],pIC50 [5],pIC50 (CDK8/Cyclin C),pIC50 [6],pIC50 (CDK7/Cyclin H/MNAT1),Vd [7] [L/kg],clearance [8] [mL/min/kg],pIC50 (Cytochrome P450 1A2 [9]),pIC50 [10],pIC50 [11],pIC50 [12],pIC50 [13],pIC50 [14],pIC50 [15],clearance [16] [mL/min/kg],pIC50 [17],also measured
Cc1c(Br)c(Br)c2c3c1nc(N1CCNCC1)n3CCC2 [SEL-120 FREE BASE],8.33,7.60,7.72,32.3,3.01,7.34,7.76,6.53,7.29,6.23,246,7.40,8.87,5.86,9.01,7.84,8.78,6.48,81,8.57,pIC50 [18]: 7.69; pIC50 [19]: 6.15; pIC50 [20]: 8.28; pIC50 (Cytochrome P450 1A2 [21]): 6.80; pIC50 [22]: 7.68; half-life [23]: 2.7 h; pIC50 [24]: 6.14; pIC50 (MV4-11): 7.36; Vd [25]: 19.2 L/kg; pIC50 [26]: 5.87; clearance [27]: 30 mL/min/kg; half-life [28]: 1.77 h; pIC50 [29]: 6.55; pIC50 [30]: 6.88; pIC50 [31]: < 5.00
FC(F)c1c(Br)c(Br)cc2c1nc(N1CCNCC1)n2C1CCOCC1,7.37,7.60,8.60,13.3,5.04,7.87,8.12,6.91,6.71,4.31,70,5.34,6.71,6.88,7.50,8.68,7.06,6.80,14,8.54,inhibition [32]: 74.4%; pIC50 [18]: 6.63; pIC50 [19]: 5.24; pIC50 [20]: 8.09; pIC50 (Cytochrome P450 1A2 [21]): 5.07; pIC50 [22]: 7.84; inhibition [33]: 59.3%; half-life [23]: 4.75 h; pIC50 [24]: 6.45; pIC50 (MV4-11): 8.24; Vd [25]: 5.96 L/kg; pIC50 [26]: 7.22; clearance [27]: 12 mL/min/kg; half-life [28]: 2.53 h; pIC50 [29]: 7.19; pIC50 [30]: 6.30; pIC50 [31]: 5.18
